# Source: patent US9389219B2, “Methods for screening inhibitors of tumor associated protein aggregation” (Vrije Universiteit Brussel, priority 2011, dated 2016)
# “Also recorded” adds a separate entry of the source. Where two headings read alike, the source gives them in different places. Where a SMILES comes first, the peptide text is derived from it. The star is where a group is joined. Cbz = O=C(OCc1ccccc1)*
# Legend:
# Type in all cases: cell-based, human
# mutant p53 = experiment: BN-PAGE of p53 mutants over-expressed in SaOS-2 cells with MG-132; conditions: I254R double mutants
# Procedure: SaOS-2 or Hela cells were rinsed with ice-cold 20 mM Tris-HCl, 150 mM NaCl, pH 7.4 (TBS) and lysed with 18 mM 3-[(3-cholamidopropyl) dimethylammonio]-1-propanesulfonic acid (CHAPS) in TBS with DNase and protease inhibitors for 30 minutes at 21° C. or on ice, respectively. Whole-cell lysate was fractionated by both SDS-PAGE (NuPAGE system, Invitrogen) and Blue-Native PAGE (NativePAGE system, Invitrogen) following the product manuals. For SDS-PAGE, sample was denatured at 95° C. for 10 minutes in the presence of 2% sodium dodecyl sulfate (SDS) and then fractionated by 10% Bis-Tris gels in MES-SDS running buffer (0.1% SDS, 50 mM MES, and 50 mM Tris-Base). For Blue-Native PAGE, cell lysate was added with 20% glycerol and 5 mM Coomassie G-250 before loading onto 3-12% Novex Bis-Tris gradient gels. […] After three times of rinsing with TBS containing 0.1% TWEEN® 20 (TBST), the membrane was stained with horseradish peroxidase (HRP)-conjugated goat anti-mouse IgG (Promega) and visualized with electrochemical luminescence (ECL) system. […]
# (§1) In the degradation stability test, protein synthesis was blocked by 60 μg/mL cycloheximide 24 hours after transfection, and cells were lysed 0, 3, 6, 12, 24 and 48 hours after the addition of cycloheximide. […] Cells were analyzed by immunofluorescence after 24 hours.
# WT p53 in U2OS cells [1] = experiment: Native page analysis of p53 in treated U2OS cells
# WT p53 in U2OS cells [2] = experiment: Western blot of p53 in U2OS cells treated with chemotherapeutic agents
# WT p53 in U2OS cells [3] = experiment: Immunofluorescent staining for p53 inclusions, InCell Analyzer 2000; conditions: >1000 cells/condition
# Excerpt: It is becoming increasingly evident that resistance is also seen in cancers harboring wild-type p53, which might be explained by a change of conformation of wt p53 into a “mutant configuration.”^76 Cell lines harboring wt p53 were used and enhanced the expression using previously described chemotherapeutic agents. […] When performing immunofluorescent staining for p53 in U2OS cells, increased accumulation of non-soluble, inclusions of p53 in the cytoplasm was subsequently observed.
# [4] = test system: mutant p53 inclusions in SaOS-2 cells; experiment: Nocodazole treatment of transfected SaOS-2 cells, immunofluorescence of aggresomal inclusions
# Procedure: To further investigate the aggresomal nature of the observed inclusions, several strategies were adopted. (i) Since the formation of cytoplasmic inclusions in aggresomes is an active process that depends on cytoskeletal integrity,^15 transfected cells were treated with nocodazole, a small chemical that disrupts microtubule assembly. […] (ii) The oligomerization state of p53 in SaOS-2 cells by Blue-Native PAGE (BN-PAGE) and Western blot analysis was also assessed, after cell lysis with a mild detergent (CHAPS). […] In denaturing but non-reducing PAGE, the oligomers and aggregates were dissociated into monomers, and all mutants were expressed at similar levels (FIG. 2, panel c).
# Since co-aggregation of proteins depends strictly on sequence similarity rather than hydrophobicity,^27 mutant p53 might also be able to induce co-aggregation and inactivation of p63 and p73. To investigate this hypothesis, mutant p53 and the transactivation domain (TA) of p63 or p73 (TAp63α/TAp73α) were co-expressed in SaOS-2 cells. […]
# as §1
Structure (SMILES),proteasomal degradation of mutant p53 (mutant p53),p53 high molecular-weight species (native page) (WT p53 in U2OS cells [1]),p53 expression level (Western blot) (WT p53 in U2OS cells [2]),p53 expression level (Western blot) (WT p53 in U2OS cells [2]; listed as Cisplatin),increase in cytoplasmic aggregates of p53 (WT p53 in U2OS cells [3]),vimentin network and aggregates of mutant p53 and p63/p73 ([4]; SaOS-2 cells co-expressing aggregating p53 mutants and TAp63α/TAp73α),cellular distribution of mutant p53 ([4]; SaOS-2 cells over-expressing mutant p53)
CC(C)C[C@@H](C=O)NC(=O)[C@H](CC(C)C)NC(=O)[C@H](CC(C)C)NC(=O)OCc1ccccc1 [MG132] (Cbz-Leu-Leu-Leu-aldehyde),inhibited proteasomal degradation of mutant p53,smear was comparable,–,–,–,–,–
N.N.[Cl][Pt][Cl] [cisplatin],–,part of p53 ran as a high molecular weight smear; also recorded: high molecular-weight species of p53,started to accumulate WT p53,increased expression levels of p53,greater than three-fold increase,–,–
COC(=O)Nc1nc2ccc(C(=O)c3cccs3)cc2[nH]1 [nocodazole],–,–,–,–,–,disrupted the vimentin network and resulted in diffused punctuate aggregates in the cytoplasm,shifted from a punctate to a diffuse cytoplasmic staining
